pEC50: −log10 of the molar value. Like-named read-outs stand apart in the source and are kept apart here.
Columns and labels:
Serotonin 5-HT2A (human) = Serotonin 5-HT2A (human) (Homo sapiens (Human), UniProt P28223); assay: 5-HT2A receptor binding, [3H]-ketanserin competition in membrane fractions; settings: 1 nM [3H]-ketanserin, Cheng-Prusoff, N=1-3
C57BL/6J mice = assay: Head-Twitch Response (HTR) in mice; type: in vivo; settings: for HTR counts over baseline / induction of HTR: compared to vehicle; for Duration of HTR above baseline: C57BL/6J mice, ascending and descending arm dose; for ED50: Mus musculus, ip, 0.5 h
Procedure: Male C57BL/6J mice (6-8 weeks old) were obtained from Jackson Laboratories (Bar Harbor, ME) and housed in a vivarium at the University of California San Diego, an AAALAC-approved animal facility that meets all federal and state requirements for care and treatment of laboratory animals. All animal experiments were carried out in accordance with NIH guidelines and were approved by the UCSD Institutional Animal Care and Use Committee. Mice were housed up to four per cage in a climate-controlled room on a reverse-light cycle (lights on at 1900 h, off at 0700 h). Animals were provided with ad libitum access to food and water, with the exception of during behavioral testing.
Testing was conducted between 1000 and 1800 h. Head movements were recorded using a head-mounted magnet and a magnetometer coil as described in Halberstadt et al. (Psychopharmacology, 2013, 227(4):727-739). For the head mounted magnet, mice were anesthetized, an incision was made in the scalp, and a neodymium magnet was attached to the dorsal surface of the cranium using dental cement. Following a 2-week recovery period, behavioral experiments were conducted in a well-lit room. At least 7 days occurred between sessions to avoid any carryover effects. Test substances (i.e., dimethyltryptamine (DMT), diethyltryptamine (DET), psilocybin, 6-fluoro-diethyltryptamine (6-F-DET), compounds 3-4, 6, 9, 12-13, 22, 33, 41, 69, 88, 166, and 178) were administered intraperitoneally (IP) at a volume of 5 mL/kg. Mice were treated with vehicle (saline) or 6 doses of the test compound and then placed in a glass cylinder surrounded by a magnetometer coil and tested for 30 min. Coil voltage was filtered (1 kHz lowpass), digitized (20 kHz sampling rate) and saved to disk using a Powerlab/8SP with LabChart v 7.3.2 (ADInstruments, Colorado Springs, CO).
The entire 30 min recordings were examined for head twitches. Established procedures based on artificial intelligence were used to identify head twitches in the recordings (Scientific Reports, 2020, 10(1):1-12). HTR counts were analyzed using one-way analyses of variance (ANOVA), followed by post hoc pairwise comparisons between individual groups and vehicle using Dunnett's multiple comparisons test. […] Median effective doses (ED50 values) and 95% confidence intervals (95% CI) were calculated using nonlinear regression (Prism 9.0.2, GraphPad Software, San Diego, CA) (Table 4 and FIGS. 1-3).

5-HT2A = 5-HT2A (Homo sapiens (Human), UniProt P28223); assay: 5-HT2A Gq-mediated calcium flux functional assay; type: cell-based; settings: for 5-HT2A-Ca2+ FLUX Emax (% 5-HT) / EC50: IA = Inactive, N=1-3; for EC50: read-out: 5-HT2A-Ca2+ FLUX pEC50 (converted)
5-HT2C = 5-HT2C (Homo sapiens (Human), UniProt P28335); assay: 5-HT2C Gq-mediated calcium flux functional assay; type: cell-based; settings: for 5-HT2C-Ca2+ FLUX Emax (% 5-HT) / EC50: IA = Inactive, N=1-3; for EC50: read-out: 5-HT2C-Ca2+ FLUX pEC50 (converted)
5-HT2B = 5-HT2B (Homo sapiens (Human), UniProt P41595); assay: 5-HT2B Gq-mediated calcium flux functional assay; type: cell-based; settings: for 5-HT2B-Ca2+ FLUX Emax (% 5-HT) / EC50: IA = Inactive, N=1-3; for EC50: read-out: 5-HT2B-Ca2+ FLUX pEC50 (converted)
5-HT1A = 5-HT1A (Homo sapiens (Human), UniProt P08908); assay: 5-HT1A Gi/o-mediated cAMP inhibition, GloSensor assay; type: cell-based; settings: for 5-HT1A-cAMP Emax (% 5-HT): cAMP inhibition, 0.2 μM isoproterenol, IA = Inactive
[1] = read-out: HTR ED50 μmol/kg (95% CI)
[2] = read-out: HTR ED50 mg/kg (95% CI)

Chain of 5-HT2B (P41595 whole entry): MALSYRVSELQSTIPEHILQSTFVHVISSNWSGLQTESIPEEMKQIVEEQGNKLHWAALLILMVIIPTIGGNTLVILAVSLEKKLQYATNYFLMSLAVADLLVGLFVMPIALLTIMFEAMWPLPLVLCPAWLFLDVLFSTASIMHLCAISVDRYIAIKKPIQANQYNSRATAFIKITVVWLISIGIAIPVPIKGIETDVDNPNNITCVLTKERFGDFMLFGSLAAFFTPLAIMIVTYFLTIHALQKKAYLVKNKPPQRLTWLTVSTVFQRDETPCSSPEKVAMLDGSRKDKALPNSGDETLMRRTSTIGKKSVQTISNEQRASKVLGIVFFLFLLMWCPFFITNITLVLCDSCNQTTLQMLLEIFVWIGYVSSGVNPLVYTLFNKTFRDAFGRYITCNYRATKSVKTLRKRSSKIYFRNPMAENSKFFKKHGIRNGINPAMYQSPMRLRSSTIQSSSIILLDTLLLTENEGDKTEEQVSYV
Chain of 5-HT2C (P28335 whole entry, looked up): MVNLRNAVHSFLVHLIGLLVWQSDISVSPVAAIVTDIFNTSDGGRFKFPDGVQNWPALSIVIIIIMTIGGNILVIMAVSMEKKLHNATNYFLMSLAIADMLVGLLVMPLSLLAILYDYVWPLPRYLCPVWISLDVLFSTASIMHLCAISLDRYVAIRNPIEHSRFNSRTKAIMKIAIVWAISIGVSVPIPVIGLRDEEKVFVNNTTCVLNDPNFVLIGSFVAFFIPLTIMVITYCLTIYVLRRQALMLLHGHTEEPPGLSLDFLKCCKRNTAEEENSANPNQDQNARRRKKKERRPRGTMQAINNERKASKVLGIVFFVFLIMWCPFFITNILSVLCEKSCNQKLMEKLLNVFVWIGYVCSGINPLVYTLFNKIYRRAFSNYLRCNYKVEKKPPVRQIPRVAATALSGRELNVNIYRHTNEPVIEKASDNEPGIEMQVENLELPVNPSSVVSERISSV

SMILES	5-HT2A pKi ± SEM (Serotonin 5-HT2A (human))	HTR counts over baseline / induction of HTR (C57BL/6J mice)	pEC50 (5-HT2A)	5-HT2A-Ca2+ FLUX Emax (% 5-HT) (5-HT2A)	melting point [°C]	pEC50 (5-HT2C)	5-HT2C-Ca2+ FLUX Emax (% 5-HT) (5-HT2C)	pEC50 (5-HT2B)	5-HT2B-Ca2+ FLUX Emax (% 5-HT) (5-HT2B)	pEC50 (5-HT1A)	5-HT1A-cAMP Emax (% 5-HT) (5-HT1A)	EC50 (5-HT2A) [nM]	EC50 (5-HT2C) [nM]	EC50 (5-HT2B) [nM]	Duration of HTR above baseline (C57BL/6J mice)	ED50 (C57BL/6J mice; [1]) [µmol/kg]	ED50 (C57BL/6J mice; [2]) [mg/kg]
CCN(CC)CCc1c[nH]c2cccc(F)c12 [Example 8, N,N-diethyl-2-(4-fluoro-1H-indol-3-yl)ethan-1-amine]	6.09	inactive															
CCN(CCc1c[nH]c2ccc(F)cc12)C1CCC1 [compound 31, N-ethyl-N-(2-(5-fluoro-1H-indol-3-yl)ethyl)cyclobutanamine]	6.26 ± 0.32		8.69	104.5 ± 1.8	89.4 to 90.3	7.24	98.0 ± 1.9	8.60	96.5 ± 1.4	7.65	100.7 ± 1.8						
CN1CCC(c2c[nH]c3cc(F)c(F)cc23)C1 (centres unmarked) [compound 19, 5,6-difluoro-3-(1-methylpyrrolidin-3-yl)-1H-indole]	6.92			53.3 ± 3.6	119.5 to 120.3		70.5 ± 2.3		32.2 ± 2.2	5.53	113.3 ± 4.0	3.89	3.63	1.51			
CN(C)CCc1c[nH]c2ccccc12 [DMT, dimethyl tryptamine, reference compound]															about 10 minutes		
CCN(CC)CCc1c[nH]c2cc(F)ccc12 [6-F-DET, 6-fluoro-N,N-diethyltryptamine, reference compound]		inactive															
CCN(CCc1c[nH]c2ccc(F)cc12)C(C)C [Example 1, N-ethyl-N-(2-(5-fluoro-1H-indol-3-yl)ethyl)propan-2-amine]	5.95 ± 0.07		8.87	102.6 ± 0.8	77.1 to 78.1	8.18	107.6 ± 2.3	8.88	100.0 ± 0.6	6.23	86.4 ± 2.6						
CN1CCC[C@H]1Cc1c[nH]c2ccc(F)cc12 [compound 27, (S)-5-fluoro-3-((1-methylpyrrolidin-2-yl)methyl)-1H-indole]	5.57		7.23	34.4 ± 2.3	135 to 136.4	7.25	18.5 ± 0.7	7.85	35.3 ± 1.3	6.25	88.2 ± 3.6						
CN1CCC[C@@H]1Cc1c[nH]c2ccc(F)cc12 [compound 28, (R)-5-fluoro-3-((1-methylpyrrolidin-2-yl)methyl)-1H-indole]	7.19 ± 0.03		8.63	91.1 ± 2.5	127.6 to 131.7	8.76	92.8 ± 0.9	9.14	90.8 ± 1.1	7.14	101.20 ± 1.7						
CN1CCC(c2c[nH]c3c(F)cccc23)C1 (centres unmarked) [compound 23, 7-fluoro-3-(1-methylpyrrolidin-3-yl)-1H-indole]	6.43			41.8 ± 1.6	129 to 132.1		26.6 ± 1.1		19.7 ± 0.8	7.65	99.2 ± 1.7	8.51	20.9	4.37			
CCN(C)CCc1c[nH]c2c(F)cc(F)cc12 [compound 69, 2-(5,7-difluoro-1H-indol-3-yl)-N-ethyl-N-methylethan-1-amine]	6.90 ± 0.002															4.81	1.32
CCN(C)CCc1c[nH]c2c(F)cc(OC)cc12 [compound 88, N-ethyl-2-(7-fluoro-5-methoxy-1H-indol-3-yl)-N-methylethan-1-amine]	6.71 ± 0.31		8.71	90.6 ± 0.8		7.69	86.8 ± 1.4	8.25	37.5 ± 0.7							1.95	0.56
CN(C)CCc1c[nH]c2cccc(O)c12 [psilocin, reference compound]															about 35 minutes		
C=CC(C)N(C)CCc1c[nH]c2ccc(F)cc12 (centres unmarked) [compound 178, N-(2-(5-fluoro-1H-indol-3-yl)ethyl)-N-methylbut-3-en-2-amine]	6.25		8.27	84.7 ± 1.2		7.80	87.4 ± 1.5	8.26	27.7 ± 0.5							3.53	0.87
CCCN(CC)CCc1c[nH]c2c(F)cc(C)cc12 [compound 166, N-ethyl-N-(2-(7-fluoro-5-methyl-1H-indol-3-yl)ethyl)propan-1-amine]	5.96 ± 0.25		7.74	98.1 ± 0.7		6.70	94.6 ± 1.7	7.48	95.9 ± 0.7							6.56	1.96
CCCN(CC)CCc1c[nH]c2c(F)cc(OC)cc12 [compound 41, N-ethyl-N-(2-(7-fluoro-5-methoxy-1H-indol-3-yl)ethyl)propan-1-amine]	6.15 ± 0.34															3.56	1.12

From US20240286998A1, “F[…], ANALOGUES THEREOF, AND METHODS USING SAME” (Saint Joseph's University, priority 2021, published 2024)
